Legend:
Assay type in all cases: biochemical
FXa (Homo sapiens) = target: T1, FXa (Homo sapiens); assay: AT-dependent Xa inhibitory activity assay; conditions: in presence of AT; for IC50: read-out: Drug concentration required to inhibit 50% of coagulation factor activity (IC50, ng/mL) Xa (AT)
T1 construct: 8 μg/mL FXa solution; purchased
Description: AT-dependent Xa inhibitory activity assay: Heparin […] kit was used for detection. To a 96-well plate, 30 μL of sample, control solution or Tris-HCl buffer (negative control) was added, then 30 μL of 1 IU/mL AT solution was added, mixed well and incubated at 37° C. for 1 min; and than 30 μL of 8 μg/mL FXa solution was added, mixed well and incubated at 37° C. for 1 min, then 30 μL of pre-warmed 1.25 mM Xa chromogenic substrate SXa-11 was added. OD405 was detected by a microplate reader.
(§1) Data processing: The average value of OD405 detected by the duplicated well was used as the detection value of the test sample and the reference of each concentration, and the slope of the linear fit between the detected value to the time value (the change rate of the absorbance value OD405/min) indicated enzymatic activity of coagulation factor. Taking the clotting factor activity of the negative control well as 100%, coagulation factor activity (percentage) in the presence of the test sample was calculated. The coagulation factor activity in the presence of the test sample was plotted against the concentration of the test sample, and fitted according to the following formula, to calculate the IC50 value: B=(IC50)^n/{(IC50)^n+[I]^n}
(§2) in the formula, B is the coagulation factor activity (percentage) in the presence of the test sample, [I] is the concentration of the test sample, IC50 is the half inhibitory concentration (concentration of the test sample required to inhibit 50% of the activity), and n is the Hill coefficient. • (4) Effect on surface activation and platelet activity: […]

plasma = assay: TT (thrombin time) clotting time
human-controlled plasma [1] = assay: Anticoagulant activity assay: PT clotting time
Description: (§3) 8.2 Methods • (1) Preparation of sample solution: Oligosaccharide compounds A1˜A8, B1˜B11 and oligosaccharide mixtures C1, D1, D2 were all dissolved in Tris-HCl buffer and diluted to the desired series of solubility. • (2) Anticoagulant activity assay: 90 μL of human-controlled plasma was added to the sample or 10 μL of the control solution, and then the clotting time (APTT and PT) was detected by the MC-4000 coagulometer according to the method described in the APTT and PT kit instructions. • (3) Coagulation factor inhibitory activity analysis: […]

intrinsic factor Xase = target: T2, intrinsic factor Xase (Homo sapiens, UniProt P00740); assay: Xase inhibitory activity assay; conditions: for IC50: read-out: Drug concentration required to inhibit 50% of coagulation factor activity (IC50, ng/mL) Xase (converted)
T2 construct: 60 nM FIXa; purchased
T2 sequence (P00740 47-191 limits assumed): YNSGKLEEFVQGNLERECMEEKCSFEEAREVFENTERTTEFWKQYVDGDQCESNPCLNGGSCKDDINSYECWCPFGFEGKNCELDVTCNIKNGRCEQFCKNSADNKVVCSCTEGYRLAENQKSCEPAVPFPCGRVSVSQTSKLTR
T2 sequence (P00740 227-461 limits assumed): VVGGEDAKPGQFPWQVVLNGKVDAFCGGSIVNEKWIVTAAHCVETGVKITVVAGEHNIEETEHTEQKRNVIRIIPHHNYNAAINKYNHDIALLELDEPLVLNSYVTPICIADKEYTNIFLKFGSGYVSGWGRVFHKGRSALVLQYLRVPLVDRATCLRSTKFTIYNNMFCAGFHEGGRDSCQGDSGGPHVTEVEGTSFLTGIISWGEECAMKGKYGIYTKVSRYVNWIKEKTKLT
Description: Xase inhibitory activity assay: Detection was performed according to kit instructions and literature methods by combining the Factor VIII and […]. Specifically, to each well of a 96-well plate, 30 μL of test solution, control solution, or Tris-HCl buffer (negative control) was added, and 30 μl of FVIII (2 IU/ml), 30 μl of R2 (60 nM FIXa, containing FIIa, PC/PS, Ca^2+) were sequentially added, mixed by shaking the plate, incubated at 37° C. for 2 min; and then 30 μL of R1 (50 nM FX, containing direct thrombin inhibitor) was added, mixed by shaking the plate, incubated at 37° C. for 1 min; and then 30 μL of R3 (FXa chromogenic substrate SXa-11, about 8.4 mM) was added. The absorbance at 405 nm (OD405) was detected with a microplate reader, continuously measuring for 7.5 min at a interval of 30 s. The Xase activity and IC50 value of Xase inhibition of the test sample were calculated based on the OD405 change value.
as §1, §2

human-controlled plasma [2] = assay: Anticoagulant activity assay: APTT clotting time
Description: as §3

FIIa (Homo sapiens) [3] = target: T3, FIIa (Homo sapiens); assay: AT-dependent IIa inhibitory activity assay; conditions: in presence of AT; for IC50: read-out: Drug concentration required to inhibit 50% of coagulation factor activity (IC50, ng/mL) Ha (AT)
T3 construct: antithrombin (i.e., active coagulation factor IIa); purchased
Description: AT-dependent IIa inhibitory activity assay: Heparin Anti-FIIa kit was used for detection. To a 96-well plate, 30 μL of sample, control solution or Tris-HCl buffer (negative control) was added, and then 30 μL of 1 IU/mL AT solution was added, mixed well by shaking the plate and incubated at 37° C. for 2 min; 30 μL of 24 IU/mL FIIa solution was added, mixed well by shaking the plate and incubated for 2 min at 37° C., and then 30 μL of pre-warmed 1.25 mM FIIa specific chromogenic substrate CS-01 (38) was added, mixed well by shaking the plate. The OD405 was detected by a microplate reader and the IC50 value of FIIa inhibition of each sample was calculated.
as §1, §2
T3 sequence (P01008 33-464): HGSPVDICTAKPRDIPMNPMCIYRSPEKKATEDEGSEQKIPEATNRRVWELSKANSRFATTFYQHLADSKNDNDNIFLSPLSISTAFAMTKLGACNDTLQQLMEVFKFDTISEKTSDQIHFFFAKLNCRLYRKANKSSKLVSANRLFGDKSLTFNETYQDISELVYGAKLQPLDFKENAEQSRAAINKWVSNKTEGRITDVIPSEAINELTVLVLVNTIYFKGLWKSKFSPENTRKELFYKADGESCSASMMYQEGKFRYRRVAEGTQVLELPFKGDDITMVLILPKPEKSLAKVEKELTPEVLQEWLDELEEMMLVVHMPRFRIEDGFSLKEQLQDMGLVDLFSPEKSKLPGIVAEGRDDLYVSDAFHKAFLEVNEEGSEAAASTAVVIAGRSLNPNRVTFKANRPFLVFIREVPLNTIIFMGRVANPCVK

FIIa (Homo sapiens) [4] = target: T4, FIIa (Homo sapiens); assay: HC-II-dependent IIa inhibitory activity assay; conditions: in presence of HC-II; read-out: Drug concentration required to inhibit 50% of coagulation factor activity (IC50, ng/mL) Ha (HC-II) (converted)
T4 construct: antithrombin (i.e., active coagulation factor IIa)
Description: HC-II-dependent IIa inhibitory activity assay: 30 μL of sample, control solution or Tris-HCl buffer (negative control) was added, 30 μL of 1 μM HCII solution was added, and incubated at 37° C. for 2 min; and then 30 μL of 20 NIH/mL FIIa was added, and incubated at 37° C. for 1 min; and finally 30 μL of pre-warmed 4.5 mM FIIa chromogenic substrate CS-01 (38) was added. OD405 was detected by a microplate reader and the IC50 value of FIIa inhibition of each sample was calculated.
as §1, with “B=(IC50)^n/{(IC50)^n+[I]^n} […]” for “B=(IC50)^n/{(IC50)^n+[I]^n}”
T4 sequence (P05546 20-499): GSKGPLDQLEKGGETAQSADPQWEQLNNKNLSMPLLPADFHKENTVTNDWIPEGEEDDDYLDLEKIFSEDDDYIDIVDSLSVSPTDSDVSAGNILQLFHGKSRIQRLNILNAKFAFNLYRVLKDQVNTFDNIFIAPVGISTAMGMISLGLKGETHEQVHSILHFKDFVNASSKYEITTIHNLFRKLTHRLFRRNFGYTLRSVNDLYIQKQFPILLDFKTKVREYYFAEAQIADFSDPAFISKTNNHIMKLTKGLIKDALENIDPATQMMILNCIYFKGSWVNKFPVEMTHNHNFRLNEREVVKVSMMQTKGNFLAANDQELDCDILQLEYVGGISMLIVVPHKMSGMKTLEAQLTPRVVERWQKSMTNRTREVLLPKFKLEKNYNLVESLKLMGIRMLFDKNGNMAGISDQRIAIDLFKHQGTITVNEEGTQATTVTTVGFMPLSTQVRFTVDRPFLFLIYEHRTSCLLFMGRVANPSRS

T1 sequence (P01008 33-464): as the sequence (P01008 33-464) above

| Molecule | IC50 (FXa (Homo sapiens)) | Drug concentration required for multiplication of coagulation time (μg/mL) TT (plasma) | Drug concentration required for multiplication of coagulation time (μg/mL) PT (human-controlled plasma [1]) | IC50 (intrinsic factor Xase) | Drug concentration required for multiplication of coagulation time (μg/mL) APTT (human-controlled plasma [2]) | IC50 (FIIa (Homo sapiens) [3]) | IC50 (FIIa (Homo sapiens) [4]) | Drug concentration required to inhibit 50% of coagulation factor activity (IC50, ng/mL) Xa (AT) (FXa (Homo sapiens)) | Drug concentration required to inhibit 50% of coagulation factor activity (IC50, ng/mL) Xase (intrinsic factor Xase) | Drug concentration required to inhibit 50% of coagulation factor activity (IC50, ng/mL) Ha (AT) (FIIa (Homo sapiens) [3]) |
| --- | --- | --- | --- | --- | --- | --- | --- | --- | --- | --- |
| CC(=O)N[C@H]1[C@H](O[C@@H]([C@H](O[C@@H]2O[C@@H](C)[C@@H](OS(=O)(=O)O)[C@@H](OS(=O)(=O)O)[C@@H]2O)[C@@H](O)CO)[C@H](O)C(=O)O)O[C@H](COS(=O)(=O)O)[C@H](OS(=O)(=O)O)[C@@H]1O[C@@H]1OC(C(=O)O)=C[C@H](O[C@@H]2O[C@@H](C)[C@@H](OS(=O)(=O)O)[C@@H](OS(=O)(=O)O)[C@@H]2O)[C@H]1O [Compound B1, L-Fuc3S4S-(α1,3)-L-ΔUA-(α1,3)-{D-GalNAc4S6S-(β1,4)-[L-Fuc3S4S-(α1,3)]-D-GlcA-(β1,3)}˜-D-GalNAc4S6S-(β1,4)-[L-Fuc3S4S-(α1,3)]-D-GlcA-ol] | > 3760 nM | # (>128 μg/mL) | # (>128 μg/mL) | 639 nM | 53.9 µg/mL | > 3760 nM | 530 nM | – | – | – |
| CC(=O)NC1C(OC2C(C(=O)O)OC(OC3C(NC(C)=O)C(OC4C(C(=O)O)OC(OC5C(NC(C)=O)C(OC6C(C(=O)O)OC(O)C(O)C6OC6OC(C)C(OS(=O)(=O)O)C(OS(=O)(=O)O)C6O)OC(COS(=O)(=O)O)C5OS(=O)(=O)O)C(O)C4OC4OC(C)C(OS(=O)(=O)O)C(OS(=O)(=O)O)C4O)OC(COS(=O)(=O)O)C3OS(=O)(=O)O)C(O)C2OC2OC(C)C(OS(=O)(=O)O)C(OS(=O)(=O)O)C2O)OC(COS(=O)(=O)O)C(OS(=O)(=O)O)C1OC1OC(C(=O)O)=CC(OC2OC(C)C(OS(=O)(=O)O)C(OS(=O)(=O)O)C2O)C1O [Compound B8, L-Fuc3S4S-(α1,3)-L-ΔUA-(α1,3)-{D-GaNAc4S6S-(β1,4)-[L-Fuc3S4S-(α1,3)]-D-GlcA-(β1,4)}˜-D-GalNAc4S6S-(β1,4)-[L-Fuc3S4S-(α1,3)]-D-GlcA] | > 1660 nM | # (>128 μg/mL) | # (>128 μg/mL) | 9.8 nM | 5.8 µg/mL | > 1660 nM | – | – | – | – |
| CC(=O)NC1C(OC2C(C(=O)O)OC(OC3C(NC(C)=O)C(OC4C(C(=O)O)OC(OCc5ccccc5)C(O)C4OC4OC(C)C(OS(=O)(=O)O)C(O)C4OS(=O)(=O)O)OC(COS(=O)(=O)O)C3OS(=O)(=O)O)C(O)C2OC2OC(C)C(OS(=O)(=O)O)C(O)C2OS(=O)(=O)O)OC(COS(=O)(=O)O)C(OS(=O)(=O)O)C1OC1OC(C(=O)O)=CC(OC2OC(C)C(OS(=O)(=O)O)C(O)C2OS(=O)(=O)O)C1O [Compound B9, L-Fuc2S4S-(α1,3)-L-ΔUA-(α1,3)-D-GaNAc4S6S-(D1,4)-[L-Fuc2S4S-(α1,3)]-D-GlcA-(β1,3)-D-GalNAc4S6S-(β1,4)-[L-Fuc2S4S-(α1,3)]-D-1-Benzyl-GlcA-ol] | > 2210 nM | # (>128 μg/mL) | # (>128 μg/mL) | 26.3 nM | 7.6 µg/mL | > 2210 nM | – | – | – | – |
| COC(=O)C1=CC(OC2OC(C)C(OS(=O)(=O)O)C(O)C2OS(=O)(=O)O)C(O)C(OC2C(NC(C)=O)C(OC3C(C(=O)OC)OC(OC4C(NC(C)=O)C(OC5C(C(=O)OC)OC(OCc6ccccc6)C(O)C5OC5OC(C)C(OS(=O)(=O)O)C(O)C5OS(=O)(=O)O)OC(COS(=O)(=O)O)C4OS(=O)(=O)O)C(O)C3OC3OC(C)C(OS(=O)(=O)O)C(O)C3OS(=O)(=O)O)OC(COS(=O)(=O)O)C2OS(=O)(=O)O)O1 [Compound B10, L-Fuc2S4S-(α1,3)-L-6-Methyl-ΔUA-(α1,3)-D-GaNAc4S6S-(β1,4)-[L-Fuc2S4S-(α1,3)]-D-6-Methyl-ΔUA-GlcA-(β1,3)-D-GalNAc4S6S-(β1,4)-[L-Fuc2S4S-(α1,3)]-D-O-1-Benzyl-6-Methyl-GlcA] | > 2170 nM | # (>128 μg/mL) | # (>128 μg/mL) | 26.7 nM | 7.9 µg/mL | > 2170 nM | – | – | – | – |
| CCOC(=O)c1ccc(NCC(O)C(OC2OC(C)C(OS(=O)(=O)O)C(O)C2OS(=O)(=O)O)C(OC2OC(COS(=O)(=O)O)C(OS(=O)(=O)O)C(OC3OC(C(=O)O)C(OC4OC(COS(=O)(=O)O)C(OS(=O)(=O)O)C(OC5OC(C(=O)O)C(OC6OC(COS(=O)(=O)O)C(OS(=O)(=O)O)C(OC7OC(C(=O)O)=CC(OC8OC(C)C(OS(=O)(=O)O)C(O)C8OS(=O)(=O)O)C7O)C6NC(C)=O)C(OC6OC(C)C(OS(=O)(=O)O)C(O)C6OS(=O)(=O)O)C5O)C4NC(C)=O)C(OC4OC(C)C(OS(=O)(=O)O)C(O)C4OS(=O)(=O)O)C3O)C2NC(C)=O)C(O)C(=O)O)cc1 [Compound B11, L-Fuc2S4S-(α1,3)-L-ΔUA-(α1,3)-{D-GalNAc4S6S-(β1,4)-[L-Fuc2S4S-(α1,3)]-D-GlcA-(β1,3)}2-D-GalNAc4S6S-(β1,4)-[L-Fuc2S4S-(α1,3)]-D-1-deoxy-1-amino-GlcA-ol-N-4-benzoic ethyl ester] | > 1580 nM | # (>128 μg/mL) | # (>128 μg/mL) | 9.56 nM | 6.3 µg/mL | > 1580 nM | – | – | – | – |
| L-Fuc2S4S-(α1,3)-ΔUA-(α1,3)-{D-GaNAc4S6S-(β1,4)-[L-Fuc2S4S-(α1,3)]-D-GlcA-(β1,3)}n+1-D-GalNAc4S6S-ol [Compound A1] | – | # (>128 μg/mL) | # (>128 μg/mL) | – | 60.1 µg/mL | – | – | ## (>5000 ng/mL) | ## (>5000 ng/mL) | ## (>5000 ng/mL) |

Source: patent US12280072B2, “Oligosaccharide compound for inhibiting intrinsic coagulation factor X-enzyme complex, and preparation method therefor and uses thereof” (Jiuzhitang Co., Ltd., priority 2017, dated 2025)
